Broadly, the IC50 is the concentration that gives 50% inhibition.

Structures can show the parent of a compound that is named as a salt.

For test [1], the target named is T1, human Aurora A (Homo sapiens, UniProt O14965).
T1 construct: His (N); made in house; host or cells: Escherichia coli BL21-CodonPlus(DE3)-RIL
T1 sequence (O14965 1-403): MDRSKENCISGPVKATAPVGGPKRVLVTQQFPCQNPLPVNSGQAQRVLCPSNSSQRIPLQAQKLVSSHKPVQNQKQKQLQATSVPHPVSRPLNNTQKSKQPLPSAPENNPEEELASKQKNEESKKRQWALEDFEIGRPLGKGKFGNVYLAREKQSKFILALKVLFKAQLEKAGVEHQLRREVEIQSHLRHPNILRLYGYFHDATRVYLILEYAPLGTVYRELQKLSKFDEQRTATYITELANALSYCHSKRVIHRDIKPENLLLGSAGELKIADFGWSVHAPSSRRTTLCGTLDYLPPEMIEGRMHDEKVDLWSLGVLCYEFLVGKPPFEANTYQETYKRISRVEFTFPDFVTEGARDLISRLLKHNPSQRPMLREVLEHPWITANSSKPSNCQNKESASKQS
Briefly: Aurora A inhibitory activity (IMAP fluorescence polarization phosphorylation assay). The class given is biochemical. To be noted: 20 μM ATP, 30° C., 120 minutes. The source says:
cDNA of N-terminal His-tagged human Aurora A was integrated into an expression vector, which was then highly expressed in Escherichia coli BL21-CodonPlus(DE3)-RIL cells. The Escherichia coli was harvested and lysed, and then the His-tagged human Aurora A protein was applied onto a nickel chelate column and eluted from the column with imidazole. The active fractions were desalted with a desalting column to give a purified enzyme.
For the phosphorylation reaction, the method by Upstate, Inc. [Kinase Profiler™ Assay Protocols] was referred to, and phosphorylation of the substrate was detected using IMAP® technology (Molecular Devices, Co. Ltd.) (Gaudet E W. et. al, J. Biomol. Screen, 8, 164-175 (2003)). Concretely, the phosphorylation reaction and the detection were carried out as follows:
The phosphorylation reaction was conducted using 384 well plate, and the reaction volume was 10 μl/well. The reaction buffer is comprised of 50 mM Tris-chloride buffer (pH 7.4), 15 mM magnesium acetate, and 0.2 mM ethylenediamine-N,N,N′,N′-tetraacetic acid (EDTA). Thereto, the purified Aurora A protein, 100 nM of the peptide substrate, and 20 μM of adenosine 5′-triphosphate (ATP) were added, and then the reaction was carried out at 30° C. for 120 minutes.
Thereafter, in order to terminate and detect the reaction, 30 μl of the IMAP (registered trademark) binding reagent (IMAP Progressive Binding Reagent, R7284) that had been diluted (1:400) in the 1×IMAP binding buffer A (IMAP Progressive Binding Buffer A, 5× stock, R7282) was added to each well. The solution stood still for 60 minutes in the dark, and then fluorescence polarization was measured using a high-end microplate reader (excitation wavelength: 485 nm; emission wavelength: 520 nm).
The compound to be tested was added to the reaction system such that a dilution series of the compound in dimethylsulfoxide (DMSO) was prepared, and then 0.5 μL of this solution was added for the testing to each well. Each control well was provided by adding 0.5 μL of DMSO to the well in place of the DMSO solution containing the compound to be tested.
Background: In fluorescence polarisation assays a small probe gives low polarisation when free and higher when bound to something large.

Test [2] addresses T2, GST-tagged human Aurora B(AurB)/His-tagged human INCENP complex proteins (Homo sapiens, UniProt Q96GD4).
T2 construct: GST; purchased Carna Biosciences, Inc
Briefly: Aurora B inhibitory activity (Method A, IMAP assay kit). The class given is biochemical. To be noted: 40 μM ATP, 25° C., 45 minutes. Here is the method:
An assay development kit for IMAP (registered trademark) (Aurora B), purchased from Carna Biosciences, Inc., was used for phosphorylation reaction, and the phosphorylation of a substrate was detected using the IMAP technology. […] Using the same, the phosphorylation reaction was conducted in accordance with a partially revised protocol attached to the kit, and then the phosphorylation of the substrate was detected using the IMAP technology.
For the phosphorylation reaction, 384 well plate was used, and the reaction volume was 10 μl/well. The composition of the reaction buffer (assay buffer) is comprised of 20 mM of HEPES buffer (pH 7.4), 0.01% Tween-20, and 2 mM of dithiothreitol (DTT). Thereto, AurB/INCENP complex protein, 100 nM of the substrate, and 40 μM of ATP, and 1 mM of magnesium salt were added, and then the reaction was conducted at 25° C. for 45 minutes. Thereafter, in order to terminate and detect the reaction, 30 μl of the IMAP (registered trademark) binding reagent (IMAP Progressive Binding Reagent, R7284) that had been diluted (1:400) in the 1× IMAP binding buffer A (IMAP Progressive Binding Buffer A, 5× stock, R7282) was added to each well.
The compound to be tested was added to the reaction system such that a dilution series of the compound in DMSO was prepared, and then 0.5 μL of this solution was added for the testing to each well. Each control well was provided by adding 0.5 μL of DMSO to the well in place of the DMSO solution containing the compound to be tested.

For test [3], the system named is Human cervical cancer cells (HeLa S3). Briefly: Cell growth inhibitory effect, WST-8 method. The class given is cell-based. To be noted: Homo sapiens, 72 h; HeLa S3, three days incubation; read-out: Cell growth inhibitory effect (HeLaS3) (IC50). Here is the method: Fetal calf serum (FCS) was purchased from Moregate Biotech, and DMEM medium was purchased from Invitrogen Corp. WST-8 was purchased from Kishida Chemical Co., Ltd.
(§1) Human cervical cancer cells (HeLa S3) were obtained from the American Type Culture Collection (ATCC).
Cells were suspended in a DMEM medium containing 10% FCS, and the cell suspension was dispensed to a 96-well plastic plate at a rate of 750 cells/100 microliters per well. The plate was incubated overnight in 5% CO2-95% air at 37° C. A drug was subjected to graded dilution in dimethylsulfoxide and further diluted with a DMEM medium containing 10% FCS. Then, the dilution was dispensed to the plate on which cells had been disseminated in advance, at a rate of 100 microliters per well. The plate was incubated for further three days in 5% CO2-95% air at 37° C. Cell growth after incubation was measured by the WST-8 method (H. Tominaga, et al., Anal. Commun., 36, 47-50 (1999)). Here, the WST-8 method refers to a method in which 20 microliters of a WST-8 reagent solution is added to each well, incubation is conducted at 37° C. for 60 minutes, the plate is stirred, and the amount of formazan produced is measured by a […] method to determine the inhibitory rate of the drug.
On the technique in general: Tetrazolium dyes change colour on reduction, which living cells bring about.

For test [4] the test system is unchanged. Briefly: Effect by combined use of drugs in cells (docetaxel), WST-8 method. The class given is cell-based. To be noted: HeLa S3, three days. Here is the method: Fetal calf serum (FCS) was purchased from Moregate Biotech, DMEM medium from Invitrogen Corp., docetaxel (tradename: Taxere) from Sigma-Aldrich, Inc., and WST-8 from Kishida Chemical Co., Ltd.
as §1
Cells were suspended in a DMEM medium containing 10% FCS, and the cell suspension was dispensed to two 96-well plastic plates at a rate of 750 cells/100 microliters per well. The plates were incubated overnight in 5% CO2-95% air at 37° C. A drug was subjected to graded dilution in dimethylsulfoxide and further diluted with DMSO or with a DMEM medium containing 10% FCS and also containing 0.6 nM docetaxel. Then, the dilutions were each dispensed to one of the plates on which cells had been disseminated in advance, at a rate of 100 microliters per well. The final concentration of docetaxel at this stage was 0.3 nM. Also, the concentrations in the case of sole administration of the compound according to the invention were 0.003, 0.01, 0.03, 0.1, 0.3, 1, 3 and 10 μM. The plates were incubated for further three days in 5% CO2-95% air at 37° C. Cell growth after incubation was measured by the WST-8 method (H. Tominaga, et al., Anal. Commun., 36, 47-50 (1999)). Here, the WST-8 method refers to a method in which 20 microliters of a WST-8 reagent solution is added to each well, incubation is conducted at 37° C. for 60 minutes, the plate is stirred, and the amount of formazan produced is measured by a colorimetric method to determine the inhibitory rate of the drug. The growth inhibitory effects of docetaxel and of the compound according to the invention were determined, with the value obtained in sole treatment of DMSO being defined as 0%.

T2 sequence (Q96GD4 whole entry): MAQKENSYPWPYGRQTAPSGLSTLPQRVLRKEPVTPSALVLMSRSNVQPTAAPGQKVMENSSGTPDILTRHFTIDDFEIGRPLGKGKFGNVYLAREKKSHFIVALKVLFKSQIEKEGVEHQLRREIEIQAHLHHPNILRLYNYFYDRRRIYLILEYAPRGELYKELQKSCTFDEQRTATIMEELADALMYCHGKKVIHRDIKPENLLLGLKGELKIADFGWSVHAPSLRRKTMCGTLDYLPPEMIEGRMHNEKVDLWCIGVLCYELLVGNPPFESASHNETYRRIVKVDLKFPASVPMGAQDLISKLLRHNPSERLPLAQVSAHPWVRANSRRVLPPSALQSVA
T2 sequence (Q9NQS7 803-916 partner limits assumed): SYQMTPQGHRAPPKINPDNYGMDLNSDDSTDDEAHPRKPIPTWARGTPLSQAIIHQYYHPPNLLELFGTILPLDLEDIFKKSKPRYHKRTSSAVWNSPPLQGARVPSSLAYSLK

Regarding `O=C(O)[C@]1(Cc2cccc(Nc3cc[nH]n3)n2)CC[C@@H](Oc2cccc(C(F)(F)F)c2F)CC1` [Example 9, trans-4-(2-fluoro-3-(trifluoromethyl)phenoxy)-1-((6-(1H-pyrazol-3-ylamino)pyridin-2-yl)methyl)cyclohexanecarboxylic acid trifluoroacetate], the IC50 amounted to 0.16 nM in test [1], 190 nM in test [2] and 2210 nM in test [3]. The inhibition at 1 µM in test [4] (Homo sapiens, HeLa S3, 72 h, compound 1.0 μM alone, read-out: Cell growth inhibitory effect by sole administration of the compound of Example (%)) was 37.1%. In test [4] (Homo sapiens, HeLa S3, 72 h, compound 3.0 μM alone, read-out: Cell growth inhibitory effect by sole administration of the compound of Example (%)), the inhibition at 3 µM was 59%. In addition, the “Cell growth inhibitory effect by combined administration of docetaxel and the compound of Example (%)” value (from here on “Cell growth inhibitory effect … (%)”) in test [4] (compound 1.0 μM + docetaxel 0.3 nM) was 91.8%; in test [4] (compound 3.0 μM + docetaxel 0.3 nM) it was 95.0%.

As to `O=c1[nH]nc([C@]2(Cc3cccc(Nc4cc[nH]n4)n3)CC[C@@H]([S+]([O-])c3cccc(Cl)c3Cl)CC2)o1` (stereo partly drawn) [Example 35, 5-(trans-4-((2,3-dichlorophenyl)sulfinyl)-1-((6-(1H-pyrazol-3-ylamino)pyridin-2-yl)methyl)cyclohexyl)-1,3,4-oxadiazol-2(3H)-one trifluoroacetate], the IC50 worked out at 0.31 nM in test [1], 120 nM in test [2] and 220 nM in test [3]. For the same compound, the inhibition at 0.03 µM in test [4] (Homo sapiens, HeLa S3, 72 h, compound 0.03 μM alone, read-out: Cell growth inhibitory effect by sole administration of the compound of Example (%)) turned out to be 25.1%. Besides, in test [4] (Homo sapiens, HeLa S3, 72 h, compound 0.1 μM alone, read-out: Cell growth inhibitory effect by sole administration of the compound of Example (%)), the inhibition at 0.1 µM was 42.7%. The “Cell growth inhibitory effect … (%)” value in test [4] (compound 0.03 μM + docetaxel 0.3 nM) is given as 78.0%; in test [4] (compound 0.1 μM + docetaxel 0.3 nM), 89.9%.

Regarding `Cl.O=C(O)[C@]1(Cc2cccc(Nc3nccs3)n2)CC[C@@H](Oc2cccc(Cl)c2F)CC1` [Example 1, trans-4-(3-chloro-2-fluorophenoxy)-1-((6-(1,3-thiazol-2-ylamino)pyridin-2-yl)methyl)cyclohexanecarboxylic acid hydrochloride], the IC50 in test [3] was found to be 1970 nM. The inhibition at 0.3 µM in test [4] (Homo sapiens, 72 h, compound 0.3 μM alone, read-out: Cell growth inhibitory effect by sole administration of the compound of Example (%)) is 4.4%. Further, the “Cell growth inhibitory effect … (%)” value in test [4] (compound 0.3 μM + docetaxel 0.3 nM) was determined as 84.7%.

In the case of `Fc1c(O[C@H]2CC[C@](Cc3cccc(Nc4cc[nH]n4)n3)(c3nnco3)CC2)cccc1C(F)(F)F` [Example 22, 6-((trans-4-(2-fluoro-3-(trifluoromethyl)phenoxy)-1-(1,3,4-oxadiazol-2-yl)cyclohexyl)methyl)-N-1H-pyrazol-3-ylpyridin-2-amine], the IC50 in test [1] is 4.1 nM; in test [2], over 1000 nM.

As for `O=C(O)[C@]1(Cc2cccc(Nc3nccs3)n2)CC[C@@H](Oc2cccc(C(F)(F)F)c2)CC1` [Example 7, trans-1-((6-(1,3-thiazol-2-ylamino)pyridin-2-yl)methyl)-4-(3-(trifluoromethyl)phenoxy)cyclohexanecarboxylic acid hydrochloride], the IC50 in test [1] was 0.17 nM; in test [2], 130 nM.

In the case of `Fc1c(Cl)cccc1O[C@H]1CC[C@](Cc2cccc(Nc3cc[nH]n3)n2)(c2nn[nH]n2)CC1` [Example 17, 6-((trans-4-(3-chloro-2-fluorophenoxy)-1-(2H-tetrazol-5-yl)cyclohexyl)methyl)-N-1H-pyrazol-3-ylpyridin-2-amine trifluoroacetate], the IC50 in test [1] turned out to be 0.45 nM; in test [2], 350 nM.

In the case of `Fc1c(O[C@H]2CC[C@](Cc3cccc(Nc4cc[nH]n4)n3)(c3n[nH]c(=S)o3)CC2)cccc1C(F)(F)F` [Example 42, 5-(trans-4-(2-fluoro-3-(trifluoromethyl)phenoxy)-1-((6-(1H-pyrazol-3-ylamino)pyridin-2-yl)methyl)cyclohexyl)-1,3,4-oxadiazole-2(3H)-thione trifluoroacetate], the IC50 in test [1] was found to be 0.23 nM; in test [2] it was 142 nM.

Regarding `CNC(=O)[C@]1(Cc2cccc(Nc3cc[nH]n3)n2)CC[C@@H](Oc2cccc(Cl)c2F)CC1` [Example 12, trans-4-(3-chloro-2-fluorophenoxy)-N-methyl-1-((6-(1H-pyrazol-3-ylamino)pyridin-2-yl)methyl)cyclohexanecarboxamide], the results for the IC50 in test [1] and in test [2] were 2.5 nM and over 1000 nM, respectively.

Values taken from patent US20100016335A1, “NOVEL AMINOPYRIDINE DERIVATIVES HAVING AURORA A SELECTIVE INHIBITORY ACTION” (priority 2006, published 2010).
